According to article PMC12136037, “Type II kinase inhibitors that target Parkinson’s disease–associated LRRK2” (Science Advances, 2025):
“And” between values parts separate entries of the source, which are not always exact repeats. Equal entries are not always repeated.

Test system: LRRK2 S935 phosphorylation
Assay: Western blot of LRRK2 biomarker site pS935 in transfected 293T cells
Format: cell-based, human
Protocol: For all in cell kinase assays, after 48 hours, transfected cells were treated with either DMSO (control) or the indicated inhibitors for 4 hours at 37°C and 5% CO2. Following treatments, cells were washed three times with ice cold PBS. Cells were then lysed in ice cold radioimmunoprecipitation assay (RIPA) lysis buffer [50 mM tris (pH 8.0), 150 mM NaCl, 1% Triton X-100, 0.1% SDS, 0.5% sodium deoxycholate, and 1 mM DTT] in the presence of complete mini EASYpack protease inhibitor cocktail and the PhosSTOP EASYpack phosphatase inhibitor cocktail (Roche). Resuspended and lysed cells were clarified by centrifugation at 13,000g for 15 min at 4°C. NuPAGE LDS Sample Buffer (1×) and NuPAGE Sample Reducing Agent (1×; Invitrogen) were added to the clarified supernatants, and the samples were boiled at 95°C for 5 min and spun down at 13,000g for 10 min. For Western blotting, 15 μl of sample was loaded into a NuPAGE 4 to 12% gradient bis-tris gel (Invitrogen) and run at 120 V for 75 min before transfer to polyvinylidene difluoride transfer membrane (0.45-μm pore size, Millipore) for 240 min at 80 V at 4°C. The membrane was blocked in 5% milk in 1× Tris-buffered saline (TBS) [20 mM tris (pH 8.0) and 150 mM NaCl] for 1 hour shaking at room temperature. Primary antibodies [monoclonal rabbit anti-LRRK2 (Abcam, ab133474; RRID: AB_2713963), polyclonal rabbit anti-LRRK1 (Abcam, ab228666), monoclonal rabbit anti-LRRK2 phospho-S935 (Abcam, ab133450; RRID: AB_2732035), monoclonal rabbit anti-Rab8a phospho-T72 (Abcam, ab230260; RRID: AB_2814988), monoclonal rabbit anti-Rab7 phospho-S72 (Abcam, ab302494; RRID: AB_2933985), monoclonal rabbit anti–glyceraldehyde-3-phosphate dehydrogenase (GAPDH; Cell Signalling Technology, 2118; RRID: AB_561053), and monoclonal mouse anti-GFP (Santa Cruz Biotechnology, sc-9996; RRID: AB_627695)] were diluted in 5% milk in TBS and incubated with membrane for 16 hours at 4°C. Following incubation, membranes were washed three times with 1× TBS-T [20 mM tris (pH 8.0), 150 mM NaCl, and 0.1% Tween 20] before incubation with IRDye 680RD goat anti-rabbit IgG (LI-COR, 926-68071; RRID: AB_10956166) and IRDye 800CW goat anti-mouse IgG (LI-COR, 926-32210; RRID: AB_621842) secondary antibodies in 5% milk in 1× TBS for 1 hour at room temperature. Membranes were then washed three times in 1× TBS-T before imaging on Li-COR Odyssey CLx controlled by Imaging Studio software (www.licorbio.com/image-studio, RRID:SCR_015795). Image processing and quantification were performed in ImageJ version 2.14.0 (National Institutes of Health; https://imagej.net/, RRID:SCR_003070). The signal intensity of each band was assessed using the Analyze>Gels tool. The band intensity for phosphorylated LRRK2 was measured and compared to total LRRK2 levels (run under identical conditions on a separate gel). Band intensity for phosphorylated Rab7 or Rab8a was measured and compared against total GFP-Rab7 or GFP-Rab8a (using anti-GFP antibody) and LRRK1/LRRK2 levels as appropriate. Comparative statistical analysis of phosphorylation levels was analyzed using a one-way analysis of variance (ANOVA) and corrected using Tukey’s multiple comparisons test in GraphPad Prism 10 (www.graphpad.com/, RRID:SCR_002798). (For current step-by-step protocol for LRRK transfection and Western blotting, see dx.doi.org/10.17504/protocols.io.kxygx9bozg8j/v1.)

For `C[C@@H]1CN(c2cc(-c3n[nH]c4ccc(OC5(C)CC5)cc34)ncn2)C[C@H](C)O1` [MLi-2, reference compound], the “pS935 LRRK2/LRRK2 normalized to DMSO, Mean” value (500 nM, 4 h, 3 replicates) was 0.05291, the “pS935 LRRK2/LRRK2 normalized to DMSO” value (500 nM, 4 h, individual Western blots) was 0.09836 and 0.02387 and 0.03651 and the “effect on phosphorylation of LRRK2 S935” value (293T cells, MLi-2 500 nM) was “almost complete dephosphorylation”.
